Holding throughout (format): cell-based
For experiment [1], the target named is T1, human muscarinic M4 receptor (Homo sapiens, UniProt P08173).
T1 construct: expressed in transfected cells
T1 sequence (P08173 1-479): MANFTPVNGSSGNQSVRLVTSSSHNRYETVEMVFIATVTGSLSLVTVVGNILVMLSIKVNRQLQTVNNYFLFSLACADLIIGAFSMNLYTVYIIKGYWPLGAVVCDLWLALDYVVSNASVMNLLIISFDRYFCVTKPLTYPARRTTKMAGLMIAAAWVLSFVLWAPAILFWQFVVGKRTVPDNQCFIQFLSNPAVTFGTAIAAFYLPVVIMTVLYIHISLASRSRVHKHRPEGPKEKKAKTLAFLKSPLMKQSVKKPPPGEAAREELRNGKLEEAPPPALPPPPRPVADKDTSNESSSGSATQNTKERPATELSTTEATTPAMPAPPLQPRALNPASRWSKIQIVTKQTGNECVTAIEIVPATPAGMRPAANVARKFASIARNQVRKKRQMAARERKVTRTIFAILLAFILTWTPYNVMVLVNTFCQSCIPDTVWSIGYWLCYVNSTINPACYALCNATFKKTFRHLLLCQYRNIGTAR
Briefly: Alphascreen Surefire phospho-ERK1/2 functional assay, M4. The settings on record: for Emax: CHO, read-out: % Emax cf. ACh (M4), CHO cells stably expressing human M4; for Emax / % Emax cf. ACh (M4): relative to ACh. In general terms: Alpha assays give light when donor and acceptor beads are brought close together.

The target of experiment [2] is T2, human muscarinic M1 receptor (Homo sapiens, UniProt P11229).
T2 sequence (P11229 1-460): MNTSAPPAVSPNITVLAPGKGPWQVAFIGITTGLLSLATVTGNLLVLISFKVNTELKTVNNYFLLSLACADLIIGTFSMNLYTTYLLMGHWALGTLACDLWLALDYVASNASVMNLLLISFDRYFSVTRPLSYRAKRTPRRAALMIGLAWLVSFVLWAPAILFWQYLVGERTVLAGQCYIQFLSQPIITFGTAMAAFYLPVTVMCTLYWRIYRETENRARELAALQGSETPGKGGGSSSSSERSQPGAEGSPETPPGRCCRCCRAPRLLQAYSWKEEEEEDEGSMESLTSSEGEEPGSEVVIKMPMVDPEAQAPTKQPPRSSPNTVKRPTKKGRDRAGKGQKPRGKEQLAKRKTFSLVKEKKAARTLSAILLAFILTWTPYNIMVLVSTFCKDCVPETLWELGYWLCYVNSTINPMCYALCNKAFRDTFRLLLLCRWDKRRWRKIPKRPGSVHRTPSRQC
Briefly: Alphascreen Surefire phospho-ERK1/2 functional assay, M1. The settings on record: phospho-ERK1/2; for EC50 / % Emax cf. ACh (M1): CHO cells stably expressing human M1; for EC50: read-out: pEC50 M1 (converted); for Emax: CHO, read-out: % Emax cf. ACh (M1), CHO cells stably expressing human M1; for Emax / % Emax cf. ACh (M1): relative to ACh. The method, then: (§1) ERK1/2 phosphorylation is a downstream consequence of both Gq/11 and Gi/o protein coupled receptor activation, making it highly suitable for the assessment of M1, M3 (Gq/11 coupled) and M2, M4 receptors (Gi/o coupled), rather than using different assay formats for different receptor subtypes. CHO cells stably expressing the human muscarinic M1, M2, M3 or M4 receptor were plated (25K/well) onto 96-well tissue culture plates in MEM-alpha+10% dialysed FBS. Once adhered, cells were serum-starved overnight. Agonist stimulation was performed by the addition of 5 μL agonist to the cells for 5 min (37° C.). Media was removed and 50 μL of lysis buffer added. After 15 min, a 4 μL sample was transferred to 384-well plate and 7 μL of detection mixture added.

For experiment [3], the target named is T3, human muscarinic M2 receptor (Homo sapiens, UniProt P08172).
T3 sequence (P08172 1-466): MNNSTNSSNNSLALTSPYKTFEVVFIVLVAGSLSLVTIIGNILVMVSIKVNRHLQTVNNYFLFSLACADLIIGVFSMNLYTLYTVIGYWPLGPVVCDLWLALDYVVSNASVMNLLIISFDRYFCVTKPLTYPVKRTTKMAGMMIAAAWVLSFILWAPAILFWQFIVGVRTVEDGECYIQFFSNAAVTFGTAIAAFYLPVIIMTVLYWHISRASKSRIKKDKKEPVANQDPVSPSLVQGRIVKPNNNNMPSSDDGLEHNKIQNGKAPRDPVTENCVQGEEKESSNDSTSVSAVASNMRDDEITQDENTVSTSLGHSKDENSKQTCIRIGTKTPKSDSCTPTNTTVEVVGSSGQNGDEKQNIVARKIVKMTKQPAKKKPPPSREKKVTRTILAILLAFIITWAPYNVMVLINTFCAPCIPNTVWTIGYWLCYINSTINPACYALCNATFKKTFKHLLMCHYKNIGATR
As to the kind of experiment: Alphascreen Surefire phospho-ERK1/2 functional assay, M2. The settings on record: for EC50: CHO cells stably expressing human M2, read-out: pEC50 M2 (converted); for Emax: CHO, read-out: % Emax cf. ACh (M2), CHO cells stably expressing human M2, relative to ACh. The procedure: as §1

Experiment [4] concerns the target T4, human muscarinic M3 receptor (Homo sapiens, UniProt P20309).
T4 construct: expressed in transfected cells
Briefly: Alphascreen Surefire phospho-ERK1/2 functional assay, M3. The settings on record: phospho-ERK1/2; for EC50: CHO cells stably expressing human M3, read-out: pEC50 M3 (converted); for Emax: CHO, read-out: % Emax cf. ACh (M3), CHO cells stably expressing human M3, relative to ACh. The procedure:
as §1

[5] abbreviates: CHO cells stably expressing human M4, phospho-ERK1/2, read-out: pEC50 M4 (converted).
Setting [6] is: CHO cells stably expressing human M4, phospho-ERK1/2.

Like-named read-outs stand apart in the source and are kept apart here.

The results in this text go back to US10167272B2, “Muscarinic agonists” (Heptares Therapeutics Limited, priority 2015, dated 2019).

By Emax is commonly meant the size of the effect at its maximum, as opposed to the concentration needed.

T4 sequence (P20309 whole entry): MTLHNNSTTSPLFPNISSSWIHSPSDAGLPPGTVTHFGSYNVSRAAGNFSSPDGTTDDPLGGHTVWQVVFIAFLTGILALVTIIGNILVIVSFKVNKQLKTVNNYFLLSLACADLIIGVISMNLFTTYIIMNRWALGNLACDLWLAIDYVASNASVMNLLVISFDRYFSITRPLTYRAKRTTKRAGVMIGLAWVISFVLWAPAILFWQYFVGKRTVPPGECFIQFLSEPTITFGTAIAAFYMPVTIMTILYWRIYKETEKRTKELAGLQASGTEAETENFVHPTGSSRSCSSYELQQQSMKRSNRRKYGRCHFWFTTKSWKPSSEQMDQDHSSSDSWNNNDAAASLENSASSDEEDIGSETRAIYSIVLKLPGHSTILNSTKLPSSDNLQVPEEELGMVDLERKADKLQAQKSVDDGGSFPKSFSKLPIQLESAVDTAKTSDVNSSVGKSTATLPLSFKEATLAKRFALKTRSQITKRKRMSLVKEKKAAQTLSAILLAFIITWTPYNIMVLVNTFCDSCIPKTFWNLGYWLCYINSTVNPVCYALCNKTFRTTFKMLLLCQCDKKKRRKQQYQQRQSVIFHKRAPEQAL

With `CCOC(=O)N1CCC2(CC(N3CCC(N(CC(=O)OC)C4CC4)CC3)C2)C1` (single isomer, unassigned) [2-9 Isomer 2], the EC50 in experiment [1] (setting [5]) is 0.1 µM; in experiment [2], > 20 µM; in experiment [3], > 20 µM; in experiment [4], > 20 µM. The maximum response (Emax) in experiment [1] (phospho-ERK1/2) was found to be 92%; in experiment [2], 14%; in experiment [3] it was 6%; in experiment [4], 5%.
Consider `CCOC(=O)N1CCC2(CC(N3CCC(N(CC)C(=O)OCC)CC3)C2)C1` (single isomer, unassigned) [2-40 Isomer 2], for which the EC50 in experiment [1] (setting [5]) is 0.0631 µM; in experiment [2], 0.501 µM; in experiment [3] it was > 20 µM; in experiment [4] it was > 20 µM. The Emax came to 110% in experiment [1] (phospho-ERK1/2), 39% in experiment [2], 32% in experiment [3] and 9% in experiment [4].
For the compound `CCOC(=O)N1CCC2(CC(N3CCC(N(CC(F)(F)F)C(=O)OC)CC3)C2)C1` (single isomer, unassigned) [2-42 Isomer 2], the EC50 in experiment [1] (setting [5]) was 0.1 µM; in experiment [2], 1.58 µM; in experiment [3] it was > 20 µM; in experiment [4] it was > 20 µM. Moreover, the maximal response (Emax) amounted to 112% in experiment [1] (phospho-ERK1/2), 120% in experiment [2], 21% in experiment [3] and 39% in experiment [4].
As for `CCOC(=O)N1CCC2(CC(N3CCC(N(CC4CC4)C(C)=O)CC3)C2)C1` (single isomer, unassigned) [2-20 Isomer 2], the EC50 is 0.0398 µM in experiment [1] (setting [5]), 0.2 µM in experiment [2], > 20 µM in experiment [3] and > 20 µM in experiment [4]. For the same compound, in experiment [1] (setting [6]), the “% Emax cf. ACh (M4)” value is reported as 108%. In addition, the “% Emax cf. ACh (M1)” value in experiment [2] was determined as 113%. Further, the Emax in experiment [3] was 60%; in experiment [4], 33%.
On to `CCOC(=O)N1CCC2(CC(N3CCC(N(CC)CCC#N)CC3)C2)C1` (single isomer, unassigned) [2-55 Isomer 2], for which the EC50 in experiment [1] (setting [5]) was 0.0251 µM; in experiment [2] it was > 20 µM; in experiment [3], > 20 µM; in experiment [4] it was > 20 µM. Also, the Emax in experiment [1] (phospho-ERK1/2) turned out to be 65%; in experiment [2], 161%; in experiment [3], 15%; in experiment [4] it was 5%.
In the case of `CCOC(=O)N1CCC2(CC(N3CCC(N(CCO)CC(F)(F)F)CC3)C2)C1` (single isomer, unassigned) [2-51 Isomer 2], the EC50 in experiment [1] (setting [5]) is 0.02 µM; in experiment [2] it was 0.316 µM; in experiment [3], > 20 µM; in experiment [4] it was > 20 µM. In addition, the maximal effect (Emax) in experiment [1] (phospho-ERK1/2) stood at 89%; in experiment [2] it was 84%; in experiment [3], 18%; in experiment [4] it was 22%.
In the case of `CCOC(=O)N1CCC2(CC(N3CCC(N(CCOC)C4CC4)CC3)C2)C1` (single isomer, unassigned) [2-8 Isomer 2], the EC50 in experiment [1] (setting [5]) was 0.02 µM; in experiment [2], > 20 µM; in experiment [3], > 20 µM; in experiment [4], > 20 µM. In addition, the Emax came to 57% in experiment [1] (phospho-ERK1/2), 4% in experiment [2], 6% in experiment [3] and 6% in experiment [4].
With `CCOC(=O)N1CCC2(CC(N3CCC(C(C)N(C(=O)CC)C4CC4)CC3)C2)C1` (single isomer, unassigned) [2-14 Isomer 2], the EC50 in experiment [1] (setting [5]) is 0.1 µM; in experiment [2] it was 2.51 µM; in experiment [3], > 20 µM; in experiment [4], > 20 µM. Besides, the maximum response (Emax) in experiment [1] (phospho-ERK1/2) was 108%; in experiment [2] it was 47%; in experiment [3], 12%; in experiment [4] it was 5%.
As for `CCOC(=O)N1CCC2(CC(N3CCC(N(CC(C)(C)OC)C(C)=O)CC3)C2)C1` (single isomer, unassigned) [2-29 Isomer 2], the EC50 in experiment [1] (setting [5]) is 0.158 µM; in experiment [2], 0.2 µM; in experiment [3], 1.26 µM; in experiment [4], > 20 µM. For the same compound, in experiment [1] (setting [6]), the “% Emax cf. ACh (M4)” value turned out to be 84%. Besides, the “% Emax cf. ACh (M1)” value in experiment [2] came to 99%. For the same compound, the maximal effect (Emax) amounted to 29% in experiment [3] and 73% in experiment [4].
As for `CCOC(=O)N1CCC2(CC(N3CCC(C(C)(C)N(CC)C(C)=O)CC3)C2)C1` (single isomer, unassigned) [2-64 Isomer 2], the EC50 in experiment [1] (setting [5]) is 0.0316 µM; in experiment [2], 2.51 µM; in experiment [3], > 20 µM; in experiment [4], > 20 µM. For the same compound, the maximum response (Emax) in experiment [1] (phospho-ERK1/2) came out at 128%; in experiment [2] it was 46%; in experiment [3], 2%; in experiment [4] it was 4%.
Consider `CCOC(=O)N1CCC2(CC(N3CCC(C(C)n4cccn4)CC3)C2)C1` (single isomer, unassigned) [2-65 Isomer 2a], for which the EC50 in experiment [1] (setting [5]) was 0.2 µM; in experiment [2], 1 µM; in experiment [3], > 20 µM; in experiment [4], > 20 µM. Besides, the “% Emax cf. ACh (M4)” value in experiment [1] (setting [6]) was 45%. In experiment [2], the “% Emax cf. ACh (M1)” value was 43%. The Emax in experiment [3] and in experiment [4] was 15% throughout.
As to `CCN(C(C)=O)C1CCN(C2CCC3(C2)CN(C(=O)OC)C3)CC1` (single isomer, unassigned) [3-2 Isomer 2], the EC50 is 0.0316 µM in experiment [1] (setting [5]), 0.316 µM in experiment [2], > 20 µM in experiment [3] and > 20 µM in experiment [4]. Moreover, the Emax in experiment [1] (phospho-ERK1/2) was determined as 94%; in experiment [2], 42%; in experiment [3], 29%; in experiment [4], 37%.
As for `CCOC(=O)N1CCC2(CC(N3CCC(N(CC)CC(F)F)CC3)C2)C1` (single isomer, unassigned) [2-46 Isomer 2], the maximum response (Emax) is 98% in experiment [1] (phospho-ERK1/2), 63% in experiment [2], 5% in experiment [3] and 12% in experiment [4]. Also, the EC50 is 0.00794 µM in experiment [1] (pEC50 M4), 0.316 µM in experiment [2], > 20 µM in experiment [3] and > 20 µM in experiment [4].
Consider `CCOC(=O)N1CCC2(CC(N3CCC(N(CC)C(=O)OC)CC3)C2)C1` (single isomer, unassigned) [2-39 Isomer 2], for which the EC50 in experiment [1] (setting [5]) was 0.0251 µM; in experiment [2] it was 0.316 µM; in experiment [3], > 20 µM; in experiment [4] it was > 20 µM. In addition, the Emax in experiment [1] (phospho-ERK1/2) was 126%; in experiment [2], 39%; in experiment [3], 12%; in experiment [4], 25%.
